Measurements published in patent publication US20050112079A1, “Depilatories and agents for external use” (KAO CORPORATION, priority 1999, published 2005).
Where no end group is shown, it is not given here.

Legend:
[1] = test system: hair at the dorsal part of a guinea pig; test: Depilation inducing effects of endothelin, intracutaneous administration; format: in vivo; conditions: 0.3 μg intracutaneous (50 μL/site), 10 days after the administration
Description: (§1) A solution of endothelin-1 (0.3 μg) in phosphate buffer solution (PBS), which contained 0.1% of bovine serum albumin (BSA), was intracutaneously administered (at 50 μL/site) to the dorsal part of a guinea pig.

[2] = test system: growth-phase hair follicles; test: Growth-phase hair follicle inhibitory effects, number of hair shafts grown per unit area; format: in vivo; conditions: guinea pig dorsal, 1 μg intracutaneous, fifth day after the administration (FIG. 1)
Description: Solutions (1 μg, each) of endothelin-1, endothelin-2 and endotherin-3 in aliquots of phosphate buffer solution (PBS), which contained 0.1% of bovine serum albumin (BSA), were intracutaneously administered (at 50 μL/site) to the dorsal parts of guinea pigs, respectively, from which hair had been cut off by a hair clipper. Three days after the administration, hair was again cut off by a hair clipper from the administered sites. Two days after the cutting, the numbers of hair shafts grown per unit area at the administered sites were counted.

[3] = test system: growth-phase hair follicle; test: Structural changes of hair follicle structure, hematoxylin-eosin stained dorsal skin; format: in vivo; conditions: guinea pig, 0.3 μg intracutaneous
Description: as §1, with “[…]” for “0.1%”, “pig. After that, samples were collected day after day from the administered dorsal skin, and tissue samples were prepared by hematoxylin-eosin staining.” for “pig.”

[4] = test system: hair follicle organs in growth phase isolated from human scalp tissue; test: Growth inhibitory effects on organ-cultured hair follicles; format: cell-based
Description: From a human scalp tissue, hair follicle organs in growth phase were surgically isolated under a stereomicroscope. Following a conventional procedure [Philpott M. P., et al., J. Cell Sci., 97, 463-471 (1990)], the isolated hair follicles were subjected to organ culture. Described specifically, endothelin-1 was added to William's E medium which contained L-glutamine (2 mM), hydrocortisone (10 ng/mL), insulin (10 μg/mL), sodium selenite (10 ng/mL) and transferrin (10 μg/mL).

regrowth of dorsal hair = test: Hair growth test in mice, application to depilated skin; format: in vivo, C3H/HeNCrj mouse; conditions: mouse, 0.5 mg in 2.5 mL PEG 400/PEG 3350 (95/5), 25 μL/application once a day over 2 weeks; regrown hair area/depilated area×100
Description: Endothelin-1 (0.5 mg) was dissolved in a mixed solution (2.5 mL) of polyethylene glycol 400 (average molecular weight: 400) and polyethylene glycol 3350 (average molecular weight: 3,350) (mixing ratio: 95/5) to prepare a hair growth inhibitor. Dorsal hair of each 8-week old C3H/HeNCrj mouse was removed with a depilatory cream (over an area of 2×4 cm^2), and the hair growth inhibitor was applied to the depilated site once a day at a dose of 25 μL/application over 2 weeks. A group in which only the solvent was similarly applied was employed as a control group. To observe regrowth of hair, the above-described depilated site on day 14 after the depilation was photographed at a predetermined fixed magnification, and the percentage of a regrown hair area (regrown hair area/depilated area×100) was determined using an image analyzer.

Row | Molecule | Depilation at the administered site [1] | Number of hair shafts grown per unit area at the administered site [2] | Hair follicle histology ([3]; 1st day after the administration (FIG. 2)) | Hair follicle histology ([3]; 3rd day after the administration (FIG. 2)) | Grown hair follicle length versus control group ([4]; day 4 of incubation and the subsequent days (FIG. 3)) | Structural change of incubated hair follicles ([4]; during the incubation period (FIG. 4)) | Percentage of regrown hair area on day 14 after depilation (regrowth of dorsal hair) [Percentage]
1 | CC[C@H](C)[C@H](NC(=O)[C@H](CC(=O)O)NC(=O)[C@H](CC(C)C)NC(=O)[C@H](Cc1c[nH]cn1)NC(=O)[C@@H]1CSSC[C@H](N)C(=O)N[C@@H](CO)C(=O)N[C@H]2CSSC[C@H](NC(=O)[C@H](CCC(=O)O)NC(=O)[C@H](CCCCN)NC(=O)[C@H](CC(=O)O)NC(=O)[C@H](CCSC)NC(=O)[C@H](CC(C)C)NC(=O)[C@H](CO)NC(=O)[C@H](CO)NC2=O)C(=O)N[C@@H](C(C)C)C(=O)N[C@@H](Cc2ccc(O)cc2)C(=O)N[C@@H](Cc2ccccc2)C(=O)N1)C(=O)N[C@H](C(=O)N[C@@H](Cc1c[nH]c2ccccc12)C(=O)O)[C@@H](C)CC [Endothelin-1, endothelin-1] | hair shaft falling-off and formation of a marked depilation spot | significant (p<0.01) decrease in the number of hair shafts | regressed image of a growth-phase hair follicle | image of a follicular tissue in transition phase | significant hair growth inhibitory effects | structural change of the endothelin-treated, growth-phase hair follicles into those similar to resting-phase hair follicles | 2.22
2 | endothelin-2 (CSCSSWLDKECVYFCHLDIIW; ends and bridges not checked; cysteine pairing not given here; UniProt P20800 49-69, looked up) [isoform of endothelin, a peptide composed of 21 amino acid residues] |  | significant (p<0.01) decrease in the number of hair shafts |  |  |  |  | 
3 | endothelin-3 (CTCFTYKDKECVYYCHLDIIW; ends and bridges not checked; cysteine pairing not given here; UniProt P14138 97-117, looked up) [endotherin-3, isoform of endothelin, a peptide composed of 21 amino acid residues] |  | significant (p<0.01) decrease in the number of hair shafts |  |  |  |  | 
